Laboratory results from publication PMC7318034, “Safety, Pharmacokinetics, and Drug-Drug Interaction Potential of Intravenous Durlobactam, a β-Lactamase Inhibitor, in Healthy Subjects” (Antimicrobial Agents and Chemotherapy, 2020).

How the values were obtained:
[1] = cited from earlier work
[2] = Part D multiple-dose coadministration of DUR, SUL and IMI-CIL, plasma PK in healthy subjects; settings: for AUC / Cmax / Tmax: human, in vivo; for AUC: AUC0–tau
Experimental: (§1) The blank control matrix was made up of human plasma (BioreclamationIVT) diluted 1:1 with SigmaFast (reconstituted protease inhibitor cocktail tablet [product S8820; Sigma-Aldrich, St. Louis, MO] in 10 ml of water) for preparation of calibration standards and QC samples. […] A 100-μl aliquot of the supernatant was transferred to 96-well plates. Samples were diluted further with 400 μl of water, and 5 μl of sample was injected into the LC-MS/MS system for analysis. […] The LLOQ for all analytes was 5 ng/ml.
(§2) AUC was calculated using the log-linear trapezoidal rule.
(§3) Pharmacokinetic parameters were summarized at each assessment time point using the mean ± standard deviation (SD), the percent coefficient of variation (CV), median, minimum, and maximum. Single-ascending-dose study data were assessed for dose proportionality using Cmax and AUC, and accumulation ratios was determined using repeat-dose cohorts. […] Noncompartmental analysis of PK parameters was performed using Phoenix WinNonlin (v6.4) software to determine PK parameters.

[3] = Part C single-dose drug-drug interaction plasma PK in healthy subjects; settings: for half-life / AUC(0-t) / clearance / Cmax / Vd: human, in vivo; for clearance: CL; for Vd: Vss
Experimental: as §1, §2, §3

[4] = clinical; settings: human, 0.5 g
[5] = Urine PK (urinary excretion, renal clearance) in healthy subjects; settings: for CL renal: human, CLr
[6] = DUR 1 g + SUL 1 g + IMI-CIL 0.5 g q6h, day 1
[7] = DUR 1 g + SUL 1 g + IMI-CIL 0.5 g q6h, day 11
[8] = DUR 1 g + SUL 1 g + IMI-CIL 0.5 g q6h, day 1, median, n=10
[9] = DUR 1 g + SUL 1 g + IMI-CIL 0.5 g q6h, day 11, median
[10] = 1 g, part C cohort 13, SUL 1 g alone, day 1
[11] = AUC0–24, part C cohort 14, DUR 1 g + IMI-CIL 0.5 g + SUL 1 g, day 8
[12] = part C cohort 13, DUR 1 g + SUL 1 g coadministered, day 5
[13] = part C cohort 14, DUR 1 g + IMI-CIL 0.5 g + SUL 1 g, day 8
[14] = part C cohort 14, SUL 1 g + IMI-CIL 0.5 g, day 8
[15] = part C cohort 14, Day 8, placebo subjects (no DUR), n=2
[16] = part D cohort 15, Day 1, DUR + SUL + IMI-CIL q6h, mean, n=10
[17] = part D cohort 15, Day 11, DUR + SUL + IMI-CIL q6h, mean, n=10
[18] = part C cohort 14, IMI-CIL 0.5 g alone, day 3
[19] = part C cohort 14, DUR 1 g + IMI-CIL 0.5 g, day 5

colistin
nephrotoxicity, patients affected ([1]; patients treated with colistin): ≥ 40%
mortality rate ([1]; patients with hospital-acquired or ventilator-associated pneumonia treated with colistin-based antibiotic regimens): approximately 40%

CC1(C)[C@H](C(=O)O)N2C(=O)C[C@H]2S1(=O)=O [SUL, Sulbactam]
AUC [2, 6]: 76700 ± 5800 ng·h/mL
AUC [2, 7]: 67900 ± 7600 ng·h/mL
Cmax [2, 6]: 23900 ± 1300 ng/mL
Cmax [2, 7]: 22400 ± 6100 ng/mL
Tmax [2, 8]: 2.7 h
Tmax [2, 9]: 2.6 h
half-life ([3]; 1 g): 1.3 ± 0.1 h
AUC(0-t) ([3]; 1 g, AUC0–24, part C cohort 13, SUL 1 g alone, day 1): 68500 ± 4700 ng·h/mL
clearance [3, 10]: 243 mL/min
Cmax [3, 10]: 20700 ± 700 ng/mL
Vd [3, 10]: 18 ± 1.6 L
AUC(0-t) ([3]; AUC0–24, part C cohort 13, DUR 1 g + SUL 1 g coadministered, day 5): 73000 ± 6200 ng·h/mL
AUC(0-t) [3, 11]: 80600 ± 21200 ng·h/mL
AUC(0-t) ([3]; AUC0–24, part C cohort 14, SUL 1 g + IMI-CIL 0.5 g, day 8): 81700 ± 5200 ng·h/mL
clearance [3, 12]: 230 mL/min
clearance [3, 13]: 217 mL/min
clearance [3, 14]: 205 mL/min
Cmax [3, 12]: 22000 ± 2700 ng/mL
Cmax [3, 14]: 24000 ± 2000 ng/mL
Vd [3, 12]: 18.1 ± 1.7 L
Vd [3, 13]: 15.2 ± 2.7 L
Vd [3, 14]: 15.4 ± 1.5 L
t1/2 [3, 12]: 1.3 ± 0.1 h
t1/2 [3, 14]: 1.3 ± 0.1 h

CC1(C)C[C@@H]1C(=O)N/C(=C\CCCCSC[C@H](N)C(=O)O)C(=O)O [CIL, cilastatin]
CL renal ([4]; in vivo): 133 mL/min
CL renal ([5]; in vivo, part C cohort 14, Day 8, placebo subjects (no DUR), n=2): 206 mL/min
CL renal ([5]; in vivo, part D cohort 15, Day 11, DUR + SUL + IMI-CIL q6h, mean): 183 mL/min
Ae [5, 15]: 601.795 (46.820) mg
Fe [5, 15]: 120.359 (9.364) %
Ae [5, 16]: 3535.03 mg
Fe [5, 16]: 88.376%
Ae [5, 17]: 424.168 mg
Fe [5, 17]: 84.834%
Accum. index [2, 7]: 1.1 ± 0.04
accumulation index ([2]; day 11 vs day 1): approximately 1
AUC [2, 6]: 45600 ± 7000 ng·h/mL
AUC [2, 7]: 39400 ± 7200 ng·h/mL
Cmax [2, 6]: 38600 ± 6000 ng/mL
Cmax [2, 7]: 38000 ± 5600 ng/mL
Tmax [2, 8]: 0.5 h
Tmax [2, 9]: 0.5 h
half-life [3]: 1.2 ± 0.2 h
AUC(0-t) [3, 11]: 46900 ± 6600 ng·h/mL
AUC(0-t) ([3]; AUC0–24, part C cohort 14, DUR 1 g + IMI-CIL 0.5 g, day 5): 47100 ± 7200 ng·h/mL
AUC(0-t) ([3]; AUC0–24, part C cohort 14, IMI-CIL 0.5 g alone, day 3): 49600 ± 9800 ng·h/mL
clearance [3, 18]: 173 mL/min
Cmax [3, 13]: 40700 ± 4900 ng/mL
Cmax [3, 19]: 44000 ± 6100 ng/mL
Cmax [3, 18]: 46000 ± 8300 ng/mL
Vd [3, 13]: 10.4 ± 0.9 L
Vd [3, 19]: 9.9 ± 1.2 L
Vd [3, 18]: 9.6 ± 1.4 L
CL [3, 13]: 10.9 ± 1.6 L/h
t1/2 [3, 13]: 1.2 ± 0.2 h
CL [3, 19]: 10.8 ± 1.8 L/h
t1/2 [3, 19]: 1.2 ± 0.2 h

C[C@@H](O)[C@H]1C(=O)N2C(C(=O)O)=C(SCCN=CN)C[C@H]12 [IMI, imipenem, reference compound]
CL renal ([4]; urine, intravenous): 102 mL/min
CL renal ([5]; urine, intravenous, part C cohort 14, Day 8, placebo subjects (no DUR), n=2): 70.4 mL/min
CL renal ([5]; urine, intravenous, part D cohort 15, Day 11, DUR + SUL + IMI-CIL q6h, mean): 136 mL/min
Ae [5, 15]: 183.832 (56.842) mg
Fe [5, 15]: 36.766 (11.368) %
Ae [5, 16]: 1407.051 mg
Fe [5, 16]: 35.1762%
Ae [5, 17]: 271.71 mg
Fe [5, 17]: 54.343%
AUC(0-t) ([3]; AUC0–24): 43700 ± 9200 ng·h/mL
clearance [3]: 197 mL/min
Cmax [3]: 34400 ± 5300 ng/mL
half-life ([3]; t1/2): 1.2 ± 0.1 h
